Experimental data as given in patent US8012973B2, “Compounds for the treatment of auricular fibrillation” (Proyecto de Biomedicina Cima S.L., priority 2005, dated 2011).
Entries after “also recorded” stand apart in the source; their conditions may differ.

Columns and labels:
[1] = system: isolated human atrial myocytes; assay: Patch-clamp recording of spontaneous Na-Ca exchange current (INCX) associated with calcium waves, membrane potential clamped at -80 mV; format: cell-based; settings: for basal calcium wave frequency measured by patch clamp technique: cells from atrial fibrillation patients with elevated basal SR calcium release, n=7, both antagonists pooled (FIG. 3B right); for reversal of the specific effect of CGS 21680 on spontaneous SR calcium release: antagonist concentration not stated at this place
Protocol: (§1) Myocytes were isolated from human atrial tissue samples as previously described (cf. L. Hove-Madsen et al., “Atrial fibrillation is associated with increased spontaneous calcium release from the sarcoplasmic reticulum in human atrial myocytes”, Circulation 2004, vol. 110, pp. 1358-63). Briefly, the samples were rinsed, cut into small pieces in a calcium free solution containing 30 mM butanedione monoxime (BDM), and incubated at 35° C. in a Ca^2+ free solution containing 0.5 mg/ml collagenase (Worthington type 2, 318 u/mg) and 0.5 mg/ml proteinase (Sigma type XXIV, 11 u/mg solid). After 45 minutes, the tissue was removed from the enzyme solution and cells were disgregated in Ca^2+-free solution with a Pasteur pipette. The remaining tissue was digested for 3×15 minutes in a fresh calcium free solution containing 0.4 mg/ml collagenase. […] Only elongated cells with clear cross striations and without granulation were used for experiments.
The transient inward Na—Ca exchange current associated with calcium waves was recorded in the perforated patch configuration using a software controlled patch-clamp amplifier (EPC 10, HEKA, Germany). The pipette resistance was 1.5-4 MΩ. Experiments were carried out at room temperature and began when the access resistance was stable and had decreased to less than 5 times the pipette resistance. The extracellular solution contained (in mM): NaCl 127, tetraethyl ammonium (TEA) 5, HEPES 10, NaHCO3 4, NaH2PO4 0.33, glucose 10, pyruvic acid 5, CaCl2 2, MgCl2 1.8, (pH=7.4). The pipette solution contained (in mM): aspartic acid 109, CsCl 47, Mg2ATP 3, MgCl2 1, Na2phosphocreatine 5, Li2GTP 0.42, HEPES 10 and 250 μg/ml amphotericin B, (pH=7.2). The A2A receptor agonist […], the antagonists ZM 241385 and SCH 58261, and the protein kinase A inhibitor H-89 were all dissolved in DMSO and kept as 10 mM stock solutions. The caffeine releasable SR calcium content was measured by transiently exposing cells to 10 mM caffeine. The time integral of the resulting Na—Ca exchange current was converted to pmoles […] of calcium released from the SR assuming a stoichiometry of 3Na^+:1Ca^2+ for the Na—Ca exchanger.
Electrophysiological and confocal calcium imaging experiments were carried out without knowledge about the clinical data of the patients. The Ca^2+ sparks and Ca^2+ waves recorded in cells from the same patient were averaged. Unless otherwise stated, average values from each patient were used for statistical analysis and expressed as mean±S.E.M. Data sets were tested for normality. Student's t-test was used to assess significant differences when testing a specific effect. ANOVA was used for comparison of multiple effects and Student-Newman-Keuls post test was used to evaluate the significance of specific effects.

[2] = system: isolated human atrial myocytes; assay: Spontaneous SR calcium release (calcium sparks and waves), confocal calcium imaging of fluo-3 loaded cells; format: cell-based; settings: for basal calcium wave frequency measured by confocal microscopy: 50 nM, cells from atrial fibrillation patients with elevated basal SR calcium release, n=6, both antagonists pooled (FIG. 3B left)
Protocol: as §1
Calcium sparks and calcium waves were detected in fluo-3 loaded cells using a laser-scanning confocal microscope (Leica TCS SP2 AOBS, Germany). […] Fluorescence emission was collected between 500 and 650 nm with the excitation at 488 nm attenuated to 1-5%. Calcium sparks and calcium waves were measured at resting conditions during 2×10.24 s, at a scan rate of 1 kHz. Calcium sparks were detected as an increase in the signal mass of a 3 μm section through the center of a calcium spark, without any detectable increase in an adjacent 3 μm section. An increase in the signal mass in two or more adjacent 3 μm sections were counted as calcium waves. The amplitude of each calcium spark and its half-life were determined from an exponential fit of the decaying phase of the calcium spark transient. The calcium spark frequency was determined for each cell and normalized to the scanned cell length.
Electrophysiological and confocal calcium imaging experiments were carried out without knowledge about the clinical data of the patients. The Ca^2+ sparks and Ca^2+ waves recorded in cells from the same patient were averaged. […]

| Compound | basal calcium wave frequency measured by patch clamp technique ([1]; 50 nM) | reversal of the specific effect of CGS 21680 on spontaneous SR calcium release [1] | basal calcium wave frequency measured by confocal microscopy [2] | other results |
| --- | --- | --- | --- | --- |
| Nc1nc2c(cnn2CCc2ccccc2)c2nc(-c3ccco3)nn12 [SCH 58261] | significantly reduced the calcium wave frequency | reversed | significantly reduced the calcium wave frequency | spontaneous INCX frequency (basal) ([1]; 50 nM, samples of patients with atrial fibrillation, -80 mV (FIG. 3A)): reversible reduction |
| CCNC(=O)[C@H]1O[C@@H](n2cnc3c(N)nc(NCCc4ccc(CCC(=O)O)cc4)nc32)[C@H](O)[C@@H]1O [CGS 21680] |  |  |  | number of spontaneous calcium waves measured as the Na-Ca exchange current (INCX) ([1]; 200 nM, -80 mV, atrial fibrillation patients (FIG. 2A, B, D)): reversibly increased the number of spontaneous calcium waves; number of calcium waves ([2]; myocytes from patients with atrial fibrillation, preincubation with 200 nM): increased the number of calcium waves |
| Nc1nc(NCCc2ccc(O)cc2)nc2nc(-c3ccco3)nn12 [ZM 241385] | significantly reduced the calcium wave frequency | reversed | significantly reduced the calcium wave frequency | reversal of the stimulatory effect of 200 nM CGS 21680 on spontaneous INCX ([1]; antagonist 1 μM, -80 mV (FIG. 2C)): able to revert the stimulatory effect |
| O=S(=O)(NCCNC/C=C/c1ccc(Br)cc1)c1cccc2cnccc12 [H-89] |  |  |  | effect on the stimulatory effect of 200 nM CGS 21680 (wave frequency) ([1]; 10 μM H-89, myocytes from 5 patients with atrial fibrillation (FIG. 2E), p=0.002 CGS vs. CGS+H-89): abolished the stimulatory effect; also recorded: eliminated; spontaneous calcium release / calcium wave frequency relative to baseline before CGS 21680 ([1]; 10 μM H-89 with 200 nM CGS 21680, p=0.05 vs. control (FIG. 2E)): reduced spontaneous calcium release to a significantly lower level than the baseline; also recorded: reduces the calcium wave frequency below baseline level |
